In the kinase profiling compilation of Christmann-Franck et al. (2016):

Columns and labels:
Assay in all cases: radiometric filter-binding kinase assay, Kinase HotSpot
Details in all cases: compound 0.5 µM; ATP 10 µM
BRSK1 (human) = BRSK1 (human) (UniProt Q8TDC3)
CAMK2A (human) = CAMK2A (human) (UniProt Q9UQM7)
CAMK2B (human) = CAMK2B (human) (UniProt Q13554)
CDK3 CCNE1 (human) = CDK3 CCNE1 (human) (UniProt Q00526+P24864)
CLK4 (human) = CLK4 (human) (UniProt Q9HAZ1)
CSNK1A1 (human) = CSNK1A1 (human) (UniProt P48729)
Sequence of CSNK1A1 (human) (P48729 whole entry, looked up): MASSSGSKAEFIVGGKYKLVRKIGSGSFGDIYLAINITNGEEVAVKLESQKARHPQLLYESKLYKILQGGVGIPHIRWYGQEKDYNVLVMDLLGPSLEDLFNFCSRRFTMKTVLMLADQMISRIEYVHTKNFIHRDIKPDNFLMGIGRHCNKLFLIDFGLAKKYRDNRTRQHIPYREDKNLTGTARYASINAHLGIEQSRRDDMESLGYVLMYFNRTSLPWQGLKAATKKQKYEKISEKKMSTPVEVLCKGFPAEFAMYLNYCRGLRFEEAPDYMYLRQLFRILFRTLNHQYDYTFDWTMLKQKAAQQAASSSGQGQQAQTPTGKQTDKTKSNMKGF

CSNK1E (human) = CSNK1E (human) (UniProt P49674)
DMPK (human) = DMPK (human) (UniProt Q09013)
DYRK1B (human) = DYRK1B (human) (UniProt Q9Y463)
ERBB2 (human) = ERBB2 (human) (UniProt P04626)
FLT1 (human) = FLT1 (human) (UniProt P17948)
Sequence of FLT1 (human) (P17948 whole entry, looked up): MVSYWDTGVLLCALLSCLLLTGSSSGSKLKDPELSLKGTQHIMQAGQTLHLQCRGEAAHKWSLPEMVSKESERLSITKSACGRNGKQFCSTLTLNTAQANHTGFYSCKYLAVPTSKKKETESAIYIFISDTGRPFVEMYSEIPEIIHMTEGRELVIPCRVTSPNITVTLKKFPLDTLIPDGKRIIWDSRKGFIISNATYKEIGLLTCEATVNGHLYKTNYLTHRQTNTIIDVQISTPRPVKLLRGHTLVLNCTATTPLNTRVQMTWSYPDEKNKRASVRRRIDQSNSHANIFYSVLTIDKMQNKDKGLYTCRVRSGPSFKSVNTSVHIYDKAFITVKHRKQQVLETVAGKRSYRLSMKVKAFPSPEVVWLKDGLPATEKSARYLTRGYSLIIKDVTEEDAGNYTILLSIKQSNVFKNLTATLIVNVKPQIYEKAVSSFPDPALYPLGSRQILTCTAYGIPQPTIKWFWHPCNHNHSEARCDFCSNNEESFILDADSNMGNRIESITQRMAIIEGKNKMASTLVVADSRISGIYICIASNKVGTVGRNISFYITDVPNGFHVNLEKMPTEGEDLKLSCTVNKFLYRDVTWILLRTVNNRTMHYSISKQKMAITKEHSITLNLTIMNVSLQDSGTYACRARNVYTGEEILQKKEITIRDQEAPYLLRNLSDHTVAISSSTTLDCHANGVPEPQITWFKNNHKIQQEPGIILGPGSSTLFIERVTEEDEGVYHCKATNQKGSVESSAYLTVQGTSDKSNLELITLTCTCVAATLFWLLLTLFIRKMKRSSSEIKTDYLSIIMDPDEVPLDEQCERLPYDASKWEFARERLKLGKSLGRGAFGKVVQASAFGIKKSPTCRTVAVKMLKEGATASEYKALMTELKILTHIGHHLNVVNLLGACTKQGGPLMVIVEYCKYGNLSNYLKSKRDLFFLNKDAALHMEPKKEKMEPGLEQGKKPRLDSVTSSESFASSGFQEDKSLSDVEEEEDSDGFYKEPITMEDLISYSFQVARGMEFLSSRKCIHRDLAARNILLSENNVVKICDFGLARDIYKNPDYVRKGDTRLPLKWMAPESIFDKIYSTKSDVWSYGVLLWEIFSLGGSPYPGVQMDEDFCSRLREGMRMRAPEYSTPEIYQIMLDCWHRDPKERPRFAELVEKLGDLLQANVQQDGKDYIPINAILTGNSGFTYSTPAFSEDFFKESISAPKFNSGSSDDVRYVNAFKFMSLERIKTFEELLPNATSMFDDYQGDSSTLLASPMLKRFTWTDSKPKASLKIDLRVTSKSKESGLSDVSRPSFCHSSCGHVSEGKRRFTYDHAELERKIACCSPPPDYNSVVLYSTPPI

GRK5 (human) = GRK5 (human) (UniProt P34947)
Sequence of GRK5 (human) (P34947 whole entry, looked up): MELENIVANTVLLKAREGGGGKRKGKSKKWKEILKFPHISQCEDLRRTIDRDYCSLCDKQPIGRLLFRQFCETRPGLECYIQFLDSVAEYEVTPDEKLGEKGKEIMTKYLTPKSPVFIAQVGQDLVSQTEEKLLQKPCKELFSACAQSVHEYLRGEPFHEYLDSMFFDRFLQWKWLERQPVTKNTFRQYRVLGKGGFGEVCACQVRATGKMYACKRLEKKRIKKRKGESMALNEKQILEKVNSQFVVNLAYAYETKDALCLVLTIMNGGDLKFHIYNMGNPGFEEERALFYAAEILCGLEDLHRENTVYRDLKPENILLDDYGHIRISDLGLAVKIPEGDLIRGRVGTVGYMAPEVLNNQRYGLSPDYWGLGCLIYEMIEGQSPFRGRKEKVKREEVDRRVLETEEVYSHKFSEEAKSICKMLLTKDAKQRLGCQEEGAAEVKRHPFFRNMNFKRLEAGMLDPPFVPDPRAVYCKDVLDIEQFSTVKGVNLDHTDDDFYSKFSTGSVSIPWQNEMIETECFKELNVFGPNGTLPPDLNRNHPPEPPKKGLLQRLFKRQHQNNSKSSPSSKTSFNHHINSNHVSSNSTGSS

ITK (human) = ITK (human) (UniProt Q08881)
Sequence of ITK (human) (Q08881 whole entry, looked up): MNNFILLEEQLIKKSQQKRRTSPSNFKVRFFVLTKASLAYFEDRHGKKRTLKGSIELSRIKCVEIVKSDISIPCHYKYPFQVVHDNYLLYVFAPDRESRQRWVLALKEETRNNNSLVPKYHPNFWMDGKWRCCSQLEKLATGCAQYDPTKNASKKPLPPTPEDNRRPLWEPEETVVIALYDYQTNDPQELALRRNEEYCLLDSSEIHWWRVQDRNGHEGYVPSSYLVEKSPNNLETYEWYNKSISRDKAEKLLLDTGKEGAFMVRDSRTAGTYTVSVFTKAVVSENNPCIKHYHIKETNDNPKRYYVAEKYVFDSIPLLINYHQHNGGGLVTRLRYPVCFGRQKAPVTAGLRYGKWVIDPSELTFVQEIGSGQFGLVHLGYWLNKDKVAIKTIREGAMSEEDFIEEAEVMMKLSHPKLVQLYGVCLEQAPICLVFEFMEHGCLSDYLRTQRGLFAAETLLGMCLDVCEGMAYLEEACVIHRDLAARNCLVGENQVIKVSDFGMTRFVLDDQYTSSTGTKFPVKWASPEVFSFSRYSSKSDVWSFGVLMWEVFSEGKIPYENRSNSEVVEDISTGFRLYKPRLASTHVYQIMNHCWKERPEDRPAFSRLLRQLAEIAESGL

JAK2 JH1 JH2 (human) = JAK2 JH1 JH2 (human) (UniProt O60674)
KDR (human) = KDR (human) (UniProt P35968)
MAP3K8 (human) = MAP3K8 (human) (UniProt P41279)
MAP4K5 (human) = MAP4K5 (human) (UniProt Q9Y4K4)
MAPK1 (human) = MAPK1 (human) (UniProt P28482)
MST4 (human) = MST4 (human) (UniProt Q9P289)
Sequence of MST4 (human) (Q9P289 whole entry, looked up): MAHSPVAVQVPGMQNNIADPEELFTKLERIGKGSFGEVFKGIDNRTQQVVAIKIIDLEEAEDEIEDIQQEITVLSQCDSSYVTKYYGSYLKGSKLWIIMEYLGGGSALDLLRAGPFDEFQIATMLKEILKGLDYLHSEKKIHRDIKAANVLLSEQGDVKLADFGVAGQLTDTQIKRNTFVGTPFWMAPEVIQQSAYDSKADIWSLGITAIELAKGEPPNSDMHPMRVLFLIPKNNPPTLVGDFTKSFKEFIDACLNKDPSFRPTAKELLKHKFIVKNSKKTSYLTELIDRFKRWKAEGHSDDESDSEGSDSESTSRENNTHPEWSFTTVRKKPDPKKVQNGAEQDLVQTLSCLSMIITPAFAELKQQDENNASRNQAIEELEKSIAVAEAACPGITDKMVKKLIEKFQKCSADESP

MUSK (human) = MUSK (human) (UniProt O15146)
NEK2 (human) = NEK2 (human) (UniProt P51955)
Sequence of NEK2 (human) (P51955 whole entry, looked up): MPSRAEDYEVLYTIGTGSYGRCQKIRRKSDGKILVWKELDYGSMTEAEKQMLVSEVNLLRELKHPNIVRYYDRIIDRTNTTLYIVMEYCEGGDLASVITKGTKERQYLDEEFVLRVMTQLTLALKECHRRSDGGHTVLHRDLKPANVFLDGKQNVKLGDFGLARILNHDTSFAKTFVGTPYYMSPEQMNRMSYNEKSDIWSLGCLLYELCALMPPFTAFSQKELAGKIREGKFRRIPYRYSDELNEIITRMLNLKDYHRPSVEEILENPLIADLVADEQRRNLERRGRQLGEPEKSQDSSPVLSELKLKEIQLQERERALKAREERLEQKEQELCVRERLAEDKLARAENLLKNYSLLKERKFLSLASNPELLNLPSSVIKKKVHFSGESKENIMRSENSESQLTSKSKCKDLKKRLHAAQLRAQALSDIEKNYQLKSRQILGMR

NUAK1 (human) = NUAK1 (human) (UniProt O60285)
OXSR1 (human) = OXSR1 (human) (UniProt O95747)
PAK6 (human) = PAK6 (human) (UniProt Q9NQU5)
PDPK1 (human) = PDPK1 (human) (UniProt O15530)
PIM1 (human) = PIM1 (human) (UniProt P11309)
PLK3 (human) = PLK3 (human) (UniProt Q9H4B4)
PRKCB2 (human) = PRKCB2 (human) (UniProt P05771)
Sequence of PRKCB2 (human) (P05771 whole entry, looked up): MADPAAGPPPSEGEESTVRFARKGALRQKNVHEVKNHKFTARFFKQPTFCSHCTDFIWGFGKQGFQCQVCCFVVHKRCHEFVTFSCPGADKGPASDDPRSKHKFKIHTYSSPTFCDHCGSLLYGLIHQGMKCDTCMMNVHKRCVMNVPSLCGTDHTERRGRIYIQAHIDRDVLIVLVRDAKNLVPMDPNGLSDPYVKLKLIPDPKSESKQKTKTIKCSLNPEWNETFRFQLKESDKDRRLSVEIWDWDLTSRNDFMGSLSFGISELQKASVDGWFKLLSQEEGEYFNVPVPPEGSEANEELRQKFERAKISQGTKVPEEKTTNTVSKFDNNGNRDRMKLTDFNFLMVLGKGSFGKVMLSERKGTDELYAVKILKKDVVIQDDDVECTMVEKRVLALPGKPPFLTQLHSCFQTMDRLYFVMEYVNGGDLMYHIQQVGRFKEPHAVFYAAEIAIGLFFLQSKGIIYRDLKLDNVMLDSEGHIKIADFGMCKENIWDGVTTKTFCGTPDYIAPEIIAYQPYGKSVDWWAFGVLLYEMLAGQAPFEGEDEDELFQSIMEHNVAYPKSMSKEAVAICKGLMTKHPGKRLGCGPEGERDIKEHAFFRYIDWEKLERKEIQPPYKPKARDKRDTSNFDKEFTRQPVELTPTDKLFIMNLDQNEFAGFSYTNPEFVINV

PRKCZ (human) = PRKCZ (human) (UniProt Q05513)
PTK6 (human) = PTK6 (human) (UniProt Q13882)
RAF1 (human) = RAF1 (human) (UniProt P04049)
RPS6KA1 KD1 KD2 (human) = RPS6KA1 KD1 KD2 (human) (UniProt Q15418)
RPS6KA2 KD1 KD2 (human) = RPS6KA2 KD1 KD2 (human) (UniProt Q15349)
RPS6KA4 KD2 (human) = RPS6KA4 KD2 (human) (UniProt O75676)
RPS6KB1 (human) = RPS6KB1 (human) (UniProt P23443)
SGK2 (human) = SGK2 (human) (UniProt Q9HBY8)
STK33 (human) = STK33 (human) (UniProt Q9BYT3)
STK4 (human) = STK4 (human) (UniProt Q13043)
Sequence of STK4 (human) (Q13043 whole entry, looked up): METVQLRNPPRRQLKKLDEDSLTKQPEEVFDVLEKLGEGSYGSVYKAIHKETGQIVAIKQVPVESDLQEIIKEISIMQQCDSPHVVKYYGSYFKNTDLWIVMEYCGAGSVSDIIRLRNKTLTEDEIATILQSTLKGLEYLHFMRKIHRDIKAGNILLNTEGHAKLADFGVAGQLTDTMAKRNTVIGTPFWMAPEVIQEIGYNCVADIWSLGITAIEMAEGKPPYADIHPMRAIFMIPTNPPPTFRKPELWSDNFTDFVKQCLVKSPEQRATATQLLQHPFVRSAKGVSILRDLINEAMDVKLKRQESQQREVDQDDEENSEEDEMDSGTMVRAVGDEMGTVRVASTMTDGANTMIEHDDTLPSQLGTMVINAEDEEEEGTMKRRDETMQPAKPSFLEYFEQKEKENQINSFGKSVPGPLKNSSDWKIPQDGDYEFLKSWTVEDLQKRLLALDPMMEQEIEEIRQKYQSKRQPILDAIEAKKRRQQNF

SYK (human) = SYK (human) (UniProt P43405)
TAOK3 (human) = TAOK3 (human) (UniProt Q9H2K8)
TSSK1B (human) = TSSK1B (human) (UniProt Q9BXA7)
TXK (human) = TXK (human) (UniProt P42681)

Work on `CN(C)c1ccc(/C=C2\C(=O)Nc3ccccc32)cc1` yielded a residual activity (BRSK1 (human)) of 99.6%, a residual activity (CAMK2A (human)) of 106% and a residual activity (CAMK2B (human)) of 108%. The residual activity (CDK3 CCNE1 (human)) was 98.7%, the residual activity (CLK4 (human)) was 94.1% and the residual activity (CSNK1A1 (human)) was 105%. It also gave a residual activity (CSNK1E (human)) of 57.2%, a residual activity (DMPK (human)) of 105% and a residual activity (DYRK1B (human)) of 106%. It also gave a residual activity (ERBB2 (human)) of 91%, a residual activity (FLT1 (human)) of 92% and a residual activity (GRK5 (human)) of 104%. It also gave a residual activity (ITK (human)) of 99%, a residual activity (JAK2 JH1 JH2 (human)) of 94.8% and a residual activity (KDR (human)) of 94.3%. For the same molecule, the residual activity (MAP3K8 (human)) was 99.6%, the residual activity (MAP4K5 (human)) was 84.5% and the residual activity (MAPK1 (human)) was 96.4%. For the same molecule, the residual activity (MST4 (human)) was 90.9%, the residual activity (MUSK (human)) was 96.4% and the residual activity (NEK2 (human)) was 98.4%. It also gave a residual activity (NUAK1 (human)) of 80.4%, a residual activity (OXSR1 (human)) of 106% and a residual activity (PAK6 (human)) of 96.9%. The residual activity (PDPK1 (human)) was 82.3%, the residual activity (PIM1 (human)) was 101% and the residual activity (PLK3 (human)) was 97%. The residual activity (PRKCB2 (human)) was 103%, the residual activity (PRKCZ (human)) was 112% and the residual activity (PTK6 (human)) was 98.8%. It also gave a residual activity (RAF1 (human)) of 101%, a residual activity (RPS6KA1 KD1 KD2 (human)) of 78.4% and a residual activity (RPS6KA2 KD1 KD2 (human)) of 89.1%. The residual activity (RPS6KA4 KD2 (human)) was 95.2%, the residual activity (RPS6KB1 (human)) was 97.1% and the residual activity (SGK2 (human)) was 98.6%. It also gave a residual activity (STK33 (human)) of 99.8%, a residual activity (STK4 (human)) of 93.2% and a residual activity (SYK (human)) of 90.4%. It also gave a residual activity (TAOK3 (human)) of 95.1%, a residual activity (TSSK1B (human)) of 102% and a residual activity (TXK (human)) of 96.1%.
`COc1ccc2c(c1)c(C1=C(c3c[nH]c4ccccc34)C(=O)NC1=O)cn2CCCN(C)C` showed a residual activity (BRSK1 (human)) of 81.9%, a residual activity (CAMK2A (human)) of 102% and a residual activity (CAMK2B (human)) of 89.9%. It also gave a residual activity (CDK3 CCNE1 (human)) of 78.8%, a residual activity (CLK4 (human)) of 32.8% and a residual activity (CSNK1A1 (human)) of 62.3%. It also gave a residual activity (CSNK1E (human)) of 86.4%, a residual activity (DMPK (human)) of 97.7% and a residual activity (DYRK1B (human)) of 80%. It also gave a residual activity (ERBB2 (human)) of 115%, a residual activity (FLT1 (human)) of 22% and a residual activity (GRK5 (human)) of 114%. For the same molecule, the residual activity (ITK (human)) was 70.4%, the residual activity (JAK2 JH1 JH2 (human)) was 97.5% and the residual activity (KDR (human)) was 40.7%. It also gave a residual activity (MAP3K8 (human)) of 93.8%, a residual activity (MAP4K5 (human)) of 27.7% and a residual activity (MAPK1 (human)) of 102%. For the same molecule, the residual activity (MST4 (human)) was 40.4%, the residual activity (MUSK (human)) was 53.5% and the residual activity (NEK2 (human)) was 99.7%. For the same molecule, the residual activity (NUAK1 (human)) was 32.2%, the residual activity (OXSR1 (human)) was 97.7% and the residual activity (PAK6 (human)) was 70.4%. For the same molecule, the residual activity (PDPK1 (human)) was 76.7%, the residual activity (PIM1 (human)) was 11.6% and the residual activity (PLK3 (human)) was 93%. The residual activity (PRKCB2 (human)) was 14.2%, the residual activity (PRKCZ (human)) was 78.2% and the residual activity (PTK6 (human)) was 92%. It also gave a residual activity (RAF1 (human)) of 99.3%, a residual activity (RPS6KA1 KD1 KD2 (human)) of 16% and a residual activity (RPS6KA2 KD1 KD2 (human)) of 5.46%. The residual activity (RPS6KA4 KD2 (human)) was 78.6%, the residual activity (RPS6KB1 (human)) was 19.7% and the residual activity (SGK2 (human)) was 92.6%. It also gave a residual activity (STK33 (human)) of 56.2%, a residual activity (STK4 (human)) of 65.2% and a residual activity (SYK (human)) of 68.5%. The residual activity (TAOK3 (human)) was 78.2%, the residual activity (TSSK1B (human)) was 80.3% and the residual activity (TXK (human)) was 82.8%.
`COc1ccc(Cl)cc1NC(=O)Nc1cc(C)nc2ccccc12` showed a residual activity (BRSK1 (human)) of 92.8%, a residual activity (CAMK2A (human)) of 101% and a residual activity (CAMK2B (human)) of 103%. It also gave a residual activity (CDK3 CCNE1 (human)) of 93.6%, a residual activity (CLK4 (human)) of 108% and a residual activity (CSNK1A1 (human)) of 101%. For the same molecule, the residual activity (CSNK1E (human)) was 86.4%, the residual activity (DMPK (human)) was 103% and the residual activity (DYRK1B (human)) was 99.7%. The residual activity (ERBB2 (human)) was 99.7%, the residual activity (FLT1 (human)) was 86.2% and the residual activity (GRK5 (human)) was 109%. The residual activity (ITK (human)) was 96%, the residual activity (JAK2 JH1 JH2 (human)) was 99.6% and the residual activity (KDR (human)) was 92.8%. The residual activity (MAP3K8 (human)) was 99.5%, the residual activity (MAP4K5 (human)) was 100% and the residual activity (MAPK1 (human)) was 90.4%. It also gave a residual activity (MST4 (human)) of 77.6%, a residual activity (MUSK (human)) of 93.3% and a residual activity (NEK2 (human)) of 106%. It also gave a residual activity (OXSR1 (human)) of 101%, a residual activity (PAK6 (human)) of 96.5% and a residual activity (PDPK1 (human)) of 83.9%. The residual activity (PIM1 (human)) was 98.1%, the residual activity (PLK3 (human)) was 100% and the residual activity (PRKCB2 (human)) was 109%. The residual activity (PRKCZ (human)) was 99.4%, the residual activity (PTK6 (human)) was 101% and the residual activity (RAF1 (human)) was 94.8%. The residual activity (RPS6KA1 KD1 KD2 (human)) was 77.8%, the residual activity (RPS6KA2 KD1 KD2 (human)) was 99.8% and the residual activity (RPS6KA4 KD2 (human)) was 94%. It also gave a residual activity (RPS6KB1 (human)) of 96%, a residual activity (SGK2 (human)) of 96.3% and a residual activity (STK33 (human)) of 103%. The residual activity (STK4 (human)) was 98.7%, the residual activity (SYK (human)) was 88.2% and the residual activity (TAOK3 (human)) was 105%. It also gave a residual activity (TSSK1B (human)) of 94.6% and a residual activity (TXK (human)) of 98.9%.
Molecule `N#Cc1c[nH]c2c[nH]/c(=N\Cc3cccnc3)cc2/c1=N\c1ccc(F)c(Cl)c1` has a residual activity (BRSK1 (human)) of 94.5%, a residual activity (CAMK2A (human)) of 105% and a residual activity (CAMK2B (human)) of 97.4%. The residual activity (CDK3 CCNE1 (human)) was 95.6%, the residual activity (CLK4 (human)) was 63.3% and the residual activity (CSNK1A1 (human)) was 101%. It also gave a residual activity (CSNK1E (human)) of 81.8%, a residual activity (DMPK (human)) of 104% and a residual activity (DYRK1B (human)) of 65.2%. The residual activity (ERBB2 (human)) was 91.7%, the residual activity (FLT1 (human)) was 88% and the residual activity (ITK (human)) was 99.1%. The residual activity (JAK2 JH1 JH2 (human)) was 99%, the residual activity (KDR (human)) was 96.3% and the residual activity (MAP3K8 (human)) was 79.1%. It also gave a residual activity (MAP4K5 (human)) of 61.7%, a residual activity (MAPK1 (human)) of 105% and a residual activity (MST4 (human)) of 95%. It also gave a residual activity (MUSK (human)) of 55.6%, a residual activity (NEK2 (human)) of 75.2% and a residual activity (NUAK1 (human)) of 103%. The residual activity (OXSR1 (human)) was 87.7%, the residual activity (PAK6 (human)) was 104% and the residual activity (PDPK1 (human)) was 85.3%. For the same molecule, the residual activity (PIM1 (human)) was 92.7%, the residual activity (PLK3 (human)) was 91.1% and the residual activity (PRKCB2 (human)) was 86.2%. For the same molecule, the residual activity (PRKCZ (human)) was 93.9%, the residual activity (PTK6 (human)) was 84.1% and the residual activity (RAF1 (human)) was 90.9%. The residual activity (RPS6KA1 KD1 KD2 (human)) was 94.6%, the residual activity (RPS6KA2 KD1 KD2 (human)) was 87.3% and the residual activity (RPS6KA4 KD2 (human)) was 92%. For the same molecule, the residual activity (RPS6KB1 (human)) was 89.4%, the residual activity (SGK2 (human)) was 98.5% and the residual activity (STK33 (human)) was 87.4%. The residual activity (STK4 (human)) was 100%, the residual activity (SYK (human)) was 94.4% and the residual activity (TAOK3 (human)) was 99.2%. For the same molecule, the residual activity (TSSK1B (human)) was 84.4% and the residual activity (TXK (human)) was 88.1%.
